These results are taken from patent US11331271B2, “Buccal, sublingual and intranasal delivery of fospropofol” (The Johns Hopkins University, priority 2016, dated 2022).

Series [1] can be described thus: Pharmacokinetic studies in rats: fospropofol and propofol in plasma after IV, PO or ID fospropofol. The following applies: for F of fospropofol (vs 5 mg/kg IV) / F of propofol (vs 5 mg/kg IV fospropofol): rats. Here is the method:
Male Sprague-Dawley rats (Charles River, Md., USA) weighing 200-250 g were used, unless otherwise noted. Animals were housed in groups of three-inch suspended polycarbonate cages (18-inches long, 9-inches wide and 9-inches high) under a 12-h light/dark cycle. Food (Harlan/Teklab) and water (filtered and delivered via an automatic watering system) were provided ad libitum. All procedures were conducted in compliance with the laws, regulations and guidelines of the National Institutes of Health (NIH/PHS) and with approval from the local Animal Care and Use committee.
For animal studies, a fospropofol dosing solution was made by dissolving powder in water (for oral and intra-duodenal administration) or saline (for intravenous administration) into an administration volume of 1 or 2 mL/kg, as noted.
Male Sprague-Dawley rats (225-250 g) underwent implantation with indwelling jugular vein catheters for plasma sampling. Animals receiving intravenous (IV) drug administration also underwent femoral vein catheterization and, after full recovery were attached to an electronic infusion pump and administered vehicle or various concentrations of fospropofol in 1 mL total volume by gradual constant rate infusion over 10 min. Intraduodenal (ID) administration was via previously implanted catheters (HILLTOP Labs, PA) in a constant volume of 2 mL/kg body weight, by slow infusion. Oral administration (PO) was performed via a curved bulb-tipped feeding gavage tube attached to a syringe inserted carefully through the oesophagus via the side of the mouth of manually restrained rats using an administration volume of 1 mL/kg. On the day of testing, control blood samples were taken from the jugular vein prior to dosing of test compounds in conscious rats. In these studies, intravenous doses were based on previously reported behavioral and pharmacokinetic studies with fospropofol. The PO and ID doses were established based on preliminary experiments with behavioral observation, using higher doses based on lower expected oral bioavailability.
After fospropofol administration, blood samples (0.5 mL) were taken at 5, 15, 30, 45, 60, 120, 240 and 360 min post dose. An equivalent volume of blood taken from donor rats of the same strain was administered after each blood sample withdrawal, in an effort to maintain blood volume as previously described (Skrajnar, et al., 2009; Moghaddam, et al., 2002; Choi, et al., 2007). Approximately 0.05 mL of 200 mg/mL of sodium orthovanadate (SOV) solution was added to the heparinized blood collection tubes prior to blood collection to prevent ex vivo conversion via alkaline phosphatases (ALP). The blood samples were mixed, cooled and subsequently centrifuged at 3,000 rpm and 4° C. for 10 min within 30 min of collection. Plasma samples were stored at −20° C. until analysis.
For fospropofol analysis, fospropofol-d6 (internal standard prepared in 1.0 M ammonium acetate buffer) was added to the plasma samples (rat or human: 0.05 mL) and subsequently extracted using a solid phase extraction (SPE). The SPE cartridges were conditioned by gravity with methanol and 1.0 M ammonium acetate solution in water. The plasma samples with internal standard were loaded on the cartridges, washed with water and 10% methanol/water and eluted with methanol. The tubes were then evaporated under nitrogen and the residues reconstituted with 50/50 methanol/25 mM ammonium acetate in deionized water. The sample extract was then injected onto a reversed phase HPLC Zorbax Eclipse XDB-C18 column. The separated analytes were detected using tandem mass spectrometry (MS/MS) detection.

The nature of series [2]: Buccal delivery of fospropofol in monkeys: plasma and CSF levels. The series is classed as in vivo, monkey. Here is the method:
In this example, monkeys were dosed with 50 mg fospropofol by buccal administration. Plasma and CSF were collected before treatment (graphed as t=0), 15 minutes, 30 minutes, 1 hr and 2 hr. Samples were analyzed for propofol and fospropofol by LCMS.

The format of series [3] is in vitro ADME.
Method: The SPE cartridges were conditioned by gravity with methanol and 1.0 M ammonium acetate solution in water. The plasma samples with internal standard were loaded on the cartridges, washed with water and 10% methanol/water and eluted with methanol. The tubes were then evaporated under nitrogen and the residues reconstituted with 50/50 methanol/25 mM ammonium acetate in deionized water. The sample extract was then injected onto a reversed phase HPLC Zorbax Eclipse XDB-C18 column. The separated analytes were detected using tandem mass spectrometry (MS/MS) detection. […] The assays were linear with correlation coefficient of (R^2)>0.99 over the range of 10-2,000 ng/mL for rat plasma and 5-1,000 ng/mL for human plasma.
In brief, 4-[tert-octyl] phenol, (internal standard) was added to the plasma samples (0.05 mL for rat or 0.2 mL for human) and extracted using a 3M Empore C-18-SD 4 mm SPE cartridge (Millipore, Billerica, Mass., USA). […] The final eluants (˜0.3 mL) were diluted with 0.3 mL of water, and injected onto an HPLC system equipped with a C-18 analytical column (5 μm, 150×3.9 mm) and fluorescence detector set at excitation and emission wave lengths of 275 and 310 nm, respectively. […] All rat and human study samples in this study were analyzed without exceeding the stability sample integrity during validation of the methods.
Series [4] is described as follows: Intranasal delivery of fospropofol in monkeys: plasma and CSF levels. The series is classed as in vivo, monkey. Here is the method:
More particularly, in this example, monkeys were dosed with 50 mg fospropofol by intranasal administration. Plasma and cerebrospinal fluid (CSF) were collected before treatment (graphed as t=0), 15 minutes, 30 minutes, 1 hr, and 2 hr. Samples were analyzed for propofol and fospropofol by LC/MS. […] These samples are near the limit of quantification. FIGS. 11A and 11B show the data in nM and ng/mL scales, respectively.

For series [5] the following is noted: IV lipid emulsion, humans; cited from earlier work.
The conditions of series [6]: rat, oral propofol; cited from earlier work.
Series [7] has as its system Caco-2 cell monolayers. Particulars: cited from earlier work.
The mark [8] stands for this setting: male, Sprague-Dawley, rat, plasma, 30 mg/kg.
Setting [9] is: male, Sprague-Dawley, rat, plasma, 100 mg/kg.
Where [10] appears, read: male, Sprague-Dawley, rat, plasma, iv, 5 mg/kg.
Setting [11] is: male, Sprague-Dawley, rat, plasma, po, 20 mg/kg.
The mark [12] stands for this setting: male, Sprague-Dawley, rat, plasma, po, 100 mg/kg.

Take `CC(C)c1cccc(C(C)C)c1OCOP(=O)(O)O` [fospropofol]: the AUC(0-inf) – broadly, total exposure, with the tail of the curve extrapolated – in series [1] (setting [8]) is 50 ng·h/mL; in series [1] (setting [9]), 650 ng·h/mL; in series [1] (setting [10]) it was 3150 ng·h/mL; in series [1] (setting [11]), 60 ng·h/mL; in series [1] (setting [12]), 2180 ng·h/mL. Besides, the AUC(0-t) (usually the area under the concentration-time curve up to a stated or last time point) in series [1] (setting [8]) is 44 ng·h/mL; in series [1] (setting [9]) it was 644 ng·h/mL; in series [1] (setting [10]), 3150 ng·h/mL; in series [1] (setting [11]), 50 ng·h/mL; in series [1] (setting [12]), 2160 ng·h/mL. The Cmax – broadly, the highest concentration seen after dosing – in series [1] (setting [8]) is 170 ng/mL; in series [1] (setting [9]), 3740 ng/mL; in series [1] (setting [10]) it was 16300 ng/mL; in series [1] (setting [11]), 230 ng/mL; in series [1] (setting [12]), 9230 ng/mL; in series [2] (monkey, plasma, 50 mg buccal) it was around 150 nM. The half-life (as a rule, how long it takes for the measured level to halve) is 12.6 min in series [1] (setting [8]); 13.8 min in series [1] (setting [9]); 29.4 min in series [1] (setting [10]); 11.4 min in series [1] (setting [11]); 29.4 min in series [1] (setting [12]). In addition, the Vd in series [1] (setting [10]) is 1.02 L/kg. Besides, the clearance in series [1] (setting [10]) was 23 mL/min/kg. Moreover, the “F of fospropofol (vs 5 mg/kg IV)” value is 0.448% in series [1] (fospropofol 20 mg/kg PO), 0.264% in series [1] (fospropofol 30 mg/kg ID), 1.03% in series [1] (fospropofol 100 mg/kg ID) and 3.46% in series [1] (fospropofol 100 mg/kg PO). Also, in series [2] (50 mg buccal), the “time of fospropofol peak in plasma” value lay in the range of 30 to 60 min. Further, in series [2] (50 mg buccal, 2 hr), the “fospropofol plasma level by 2 hr” value is given as “below the limit of quantification”. Besides, the concentration at 15 min in series [2] (monkey, CSF, other: buccal, 50 mg buccal, 15 minutes, read-out: CSF fospropofol, one high point) was around 850 nM. The “time stable at −20° C. in human plasma” value in series [3] is 464 days. Further, the “fospropofol (prodrug) in plasma after intranasal administration” value in series [4] (50 mg intranasal) is reported as “appreciable plasma concentrations of prodrug”. For the same molecule, in series [4] (50 mg intranasal, only two samples), the “fospropofol in CSF samples” value is reported as “low nanomolar range”.
On to `CC(C)c1cccc(C(C)C)c1O` [propofol, 2,6-diisopropylphenol], for which the bioavailability – broadly, dose-corrected exposure relative to a reference, in per cent – in series [1] (male, Sprague-Dawley, rat, plasma) is around 100%; in series [1] (male, Sprague-Dawley, rat, plasma, po), 20 to 70%; in series [1] (setting [12]), at least 70%. In addition, the “F of propofol (vs 5 mg/kg IV fospropofol)” value came to 22.7% in series [1] (fospropofol 20 mg/kg PO), 47.3% in series [1] (fospropofol 30 mg/kg ID), 141% in series [1] (fospropofol 100 mg/kg ID) and 70.5% in series [1] (fospropofol 100 mg/kg PO). Further, the “extraction by the liver” value in series [5] was 80%. For the same molecule, the bioavailability of propofol in series [6] was 10%. The “highest propofol level in plasma” value in series [2] (50 mg fospropofol buccal, at 2 hours) is listed as “about 500 nM”. In addition, in series [2] (50 mg fospropofol buccal, limit of quantitation 10 nM), the “propofol in CSF” value is listed as “only 2 samples are above the limit of quantitation”. The “time stable at −20° C. in human plasma” value in series [3] was 347 days. For the same molecule, in series [7], the permeability entry is on record as “highly permeable”. In series [4] (50 mg fospropofol intranasal, up to 2 hr), the “propofol in plasma samples” value is reported as “not quantifiable”.
